# Results published in US20250114345A1, “COMPOUNDS AND COMPOSITIONS AS CBP/P300 DEGRADERS AND USES THEREOF” (Oncopia Therapeutics, Inc. d/b/a/ SK Life Science Labs, priority 2023, published 2025).
# Target: T1, p300 (Homo sapiens, UniProt Q09472)
# T1 construct: host or cells: A549 P300 HiBit cells
# Test: P300 degradation, HiBit technology in A549 P300 HiBit cells (2 h)
# Type: cell-based
# Details: 2 hrs post treatment; for Dmax: A549, A549 P300 HiBit cells; for DC50: A549 P300 HiBit cells
# Outline: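 HiBiT knock-in A549 cells received compound in serial dilution at 37 °C under 5% CO2. Remaining tagged protein was quantified by lytic HiBiT luminescence after 10 min shaking at room temperature, yielding potency and maximal degradation.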
# T1 sequence (Q09472 whole entry): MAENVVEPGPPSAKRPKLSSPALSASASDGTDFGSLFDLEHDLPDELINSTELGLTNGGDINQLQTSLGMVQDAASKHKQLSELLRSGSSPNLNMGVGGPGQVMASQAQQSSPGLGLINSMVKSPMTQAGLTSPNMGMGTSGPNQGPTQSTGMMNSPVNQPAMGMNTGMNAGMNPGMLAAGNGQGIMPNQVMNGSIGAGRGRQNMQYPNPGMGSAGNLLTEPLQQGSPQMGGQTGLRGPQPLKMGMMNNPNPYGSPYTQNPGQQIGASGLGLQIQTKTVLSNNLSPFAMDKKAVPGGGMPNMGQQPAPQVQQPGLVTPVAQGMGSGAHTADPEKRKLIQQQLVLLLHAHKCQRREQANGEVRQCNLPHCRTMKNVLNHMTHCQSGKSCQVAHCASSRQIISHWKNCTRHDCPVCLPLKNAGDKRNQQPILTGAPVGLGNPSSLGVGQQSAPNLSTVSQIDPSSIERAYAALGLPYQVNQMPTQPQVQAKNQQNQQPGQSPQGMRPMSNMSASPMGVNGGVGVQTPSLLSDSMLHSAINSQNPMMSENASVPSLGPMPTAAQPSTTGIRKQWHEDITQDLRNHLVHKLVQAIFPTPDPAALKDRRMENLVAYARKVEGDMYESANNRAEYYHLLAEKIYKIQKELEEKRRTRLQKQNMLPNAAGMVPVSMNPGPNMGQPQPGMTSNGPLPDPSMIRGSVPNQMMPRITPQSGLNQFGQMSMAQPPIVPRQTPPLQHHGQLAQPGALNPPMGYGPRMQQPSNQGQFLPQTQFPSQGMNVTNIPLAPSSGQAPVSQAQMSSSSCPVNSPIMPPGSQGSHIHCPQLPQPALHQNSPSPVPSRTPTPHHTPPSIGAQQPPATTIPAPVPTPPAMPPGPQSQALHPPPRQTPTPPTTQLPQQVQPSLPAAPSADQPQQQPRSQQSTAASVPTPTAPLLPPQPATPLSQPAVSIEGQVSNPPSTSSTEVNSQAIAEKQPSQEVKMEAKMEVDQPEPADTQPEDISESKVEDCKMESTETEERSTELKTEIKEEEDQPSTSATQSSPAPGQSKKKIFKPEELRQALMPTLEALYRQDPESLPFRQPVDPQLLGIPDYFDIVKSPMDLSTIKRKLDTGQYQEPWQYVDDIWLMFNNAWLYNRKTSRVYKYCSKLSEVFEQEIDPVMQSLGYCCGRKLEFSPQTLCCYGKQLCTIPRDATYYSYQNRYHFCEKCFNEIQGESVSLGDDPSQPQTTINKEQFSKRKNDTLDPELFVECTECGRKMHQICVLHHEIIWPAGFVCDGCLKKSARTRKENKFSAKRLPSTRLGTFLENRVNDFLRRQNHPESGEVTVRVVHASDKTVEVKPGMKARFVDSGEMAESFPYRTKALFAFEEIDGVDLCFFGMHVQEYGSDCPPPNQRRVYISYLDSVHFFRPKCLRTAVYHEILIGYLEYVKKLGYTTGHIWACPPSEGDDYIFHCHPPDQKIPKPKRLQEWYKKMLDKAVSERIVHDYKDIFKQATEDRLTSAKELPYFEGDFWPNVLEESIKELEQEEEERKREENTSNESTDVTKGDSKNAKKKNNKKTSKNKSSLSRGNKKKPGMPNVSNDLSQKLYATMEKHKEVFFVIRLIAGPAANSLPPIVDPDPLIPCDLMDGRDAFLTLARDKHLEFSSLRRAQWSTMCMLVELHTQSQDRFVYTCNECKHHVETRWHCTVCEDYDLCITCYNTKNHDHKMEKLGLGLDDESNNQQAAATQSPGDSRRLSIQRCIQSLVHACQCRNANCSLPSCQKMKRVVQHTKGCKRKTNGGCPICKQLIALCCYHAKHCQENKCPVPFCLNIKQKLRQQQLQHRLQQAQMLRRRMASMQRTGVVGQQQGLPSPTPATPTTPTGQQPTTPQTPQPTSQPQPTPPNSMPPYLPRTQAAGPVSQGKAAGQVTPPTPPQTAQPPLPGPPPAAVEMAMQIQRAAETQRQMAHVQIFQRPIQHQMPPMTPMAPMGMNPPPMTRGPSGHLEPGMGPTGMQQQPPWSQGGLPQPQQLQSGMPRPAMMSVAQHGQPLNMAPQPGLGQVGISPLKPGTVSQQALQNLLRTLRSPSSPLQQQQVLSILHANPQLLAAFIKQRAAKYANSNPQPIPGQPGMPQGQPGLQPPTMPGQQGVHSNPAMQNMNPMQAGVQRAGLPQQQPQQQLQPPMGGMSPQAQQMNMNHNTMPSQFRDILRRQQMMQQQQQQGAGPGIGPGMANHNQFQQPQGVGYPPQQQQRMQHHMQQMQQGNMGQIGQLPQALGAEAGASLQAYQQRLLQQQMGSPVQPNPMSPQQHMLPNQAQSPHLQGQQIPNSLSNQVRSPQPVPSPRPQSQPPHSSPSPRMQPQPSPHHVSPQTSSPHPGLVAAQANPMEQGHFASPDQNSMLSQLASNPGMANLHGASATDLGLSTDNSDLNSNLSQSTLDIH
Dmax [%],DC50 [nM],SMILES
> 80,< 1,"CN1CCN(c2ccc3c(c2)n(C)c(=O)n3C)c2cnc(-c3ccc(C(=O)NCC#Cc4cc5c(C6CCC(=O)NC6=O)nccc5o4)nc3)nc21 (centres unmarked) [Example A245, 5-(5-(1,3-dimethyl-2-oxo-2,3-dihydro-1H-benzo[d]imidazol-5-yl)-8-methyl-5,6,7,8-tetrahydropteridin-2-yl)-N-(3-(4-(2,6-dioxopiperidin-3-yl)furo[3,2-c]pyridin-2-yl)prop-2-yn-1-yl) picolinamide]"
> 80,< 1,"Cn1c(=O)n(C)c2c(N3CC4CCC(C3)O4)nc(-c3cccc4cc(-c5ccc(C(=O)NCC#Cc6cc7c(C8CCC(=O)NC8=O)cccc7o6)nc5)ncc34)cc21 (centres unmarked) [Example A253, 5-(8-(4-(8-oxa-3-azabicyclo[3.2.1]octan-3-yl)-1,3-dimethyl-2-oxo-2,3-dihydro-1H-imidazo[4,5-c]pyridin-6-yl)isoquinolin-3-yl)-N-(3-(4-(2,6-dioxopiperidin-3-yl)benzofuran-2-yl)prop-2-yn-1-yl)picolinamide]"
> 80,10 to 99,"Cc1cc2c(N3CCCc4nc(-c5ccc(C(=O)NCC#Cc6cc7c(C8CCC(=O)NC8=O)cccc7o6)nc5)ncc43)cc(C3CCC(F)(F)CC3)nc2n(C)c1=O (centres unmarked) [Example B158, 5-(5-(2-(4,4-difluorocyclohexyl)-6,8-dimethyl-7-oxo-7,8-dihydro-1,8-naphthyridin-4-yl)-5,6,7,8-tetrahydropyrido[3,2-d]pyrimidin-2-yl)-N-(3-(4-(2,6-dioxopiperidin-3-yl)benzofuran-2-yl)prop-2-yn-1-yl)picolinamide]"
> 80,1 to 9.9,"Cc1cc(-c2ncc3c(n2)OCCN3c2cc(C3CCOCC3)c3c(c2)n(C)c(=O)n3C)cnc1C(=O)NCC#Cc1cc2c(C3CCC(=O)NC3=O)cccc2o1 (centres unmarked) [Example A252, 5-(5-(1,3-dimethyl-2-oxo-7-(tetrahydro-2H-pyran-4-yl)-2,3-dihydro-1H-benzo[d]imidazol-5-yl)-6,7-dihydro-5H-pyrimido[4,5-b][1,4]oxazin-2-yl)-N-(3-(4-(2,6-dioxopiperidin-3-yl)benzofuran-2-yl)prop-2-yn-1-yl)-3-methylpicolinamide]"
40 to 59,10 to 99,"CC(C)c1cc(-c2cccc3cc(-c4ccc(C(=O)NCC#Cc5ccc6occ(C7CCC(=O)NC7=O)c6n5)nc4)ncc23)cc2c1n(C)c(=O)n2C (centres unmarked) [Example A159, N-(3-(3-(2,6-dioxo-piperidin-3-yl)furo[3,2-b]pyridin-5-yl)prop-2-yn-1-yl)-5-(8-(7-isopropyl-1,3-dimethyl-2-oxo-2,3-dihydro-1H-benzo [d]imidazol-5-yl)isoquinolin-3-yl)picolinamide]"
> 80,10 to 99,"CC(C)c1cc(N2CCOc3cc(-c4ccc(C(=O)NCC#Cc5ccc6occ(C7CCC(=O)NC7=O)c6c5)nc4)c(Cl)cc32)cc2c1n(C)c(=O)n2C (centres unmarked) [Example A113, 5-(6-chloro-4-(7-isopropyl-1,3-dimethyl-2-oxo-2,3-dihydro-1H-benzo[d]imidazol-5-yl)-3,4-dihydro-2H-benzo[b][1,4]oxazin-7-yl)-N-(3-(3-(2,6-dioxopiperidin-3-yl)benzofuran-5-yl)prop-2-yn-1-yl)picolinamide]"
> 80,1 to 9.9,"Cc1nc(-c2cnc(N(C)c3cc(C4CCOCC4)c4c(c3)n(C)c(=O)n4C)cn2)cnc1C(=O)NCC#Cc1cc2c(C3CCC(=O)NC3=O)cccc2o1 (centres unmarked) [Example A222, 5′-((1,3-dimethyl-2-oxo-7-(tetrahydro-2H-pyran-4-yl)-2,3-dihydro-1H-benzo[d]imidazol-5-yl)(methyl)amino)-N-(3-(4-(2,6-dioxo-piperidin-3-yl)benzofuran-2-yl)prop-2-yn-1-yl)-6-methyl-[2,2′-bipyrazine]-5-carboxamide]"
< 20,> 1000,"CC(C)c1cc(C(F)(F)c2ccc(-c3ccc(C(=O)NCC#Cc4ccc5occ(C6CCC(=O)NC6=O)c5c4)nc3)nc2)cc2c1n(C)c(=O)n2C (centres unmarked) [Example A81, 5-(difluoro(7-isopropyl-1,3-dimethyl-2-oxo-2,3-dihydro-1H-benzo[d]imidazol-5-yl)methyl)-N-(3-(3-(2,6-dioxopiperidin-3-yl)benzofuran-5-yl)prop-2-yn-1-yl)-[2,3′-bipyridine]-6′-carboxamide]"
60 to 79,10 to 99,"CCc1cc(-c2cccc3cc(-c4ccc(C(=O)NCC#Cc5ccc6c(C)nn(C7CCC(=O)NC7=O)c6c5)nc4)ncc23)c2cc(C)c(=O)n(C)c2c1 (centres unmarked) [Example B1, N-(3-(1-(2,6-Dioxopiperidin-3-yl)-3-methyl-1H-indazol-6-yl)prop-2-yn-1-yl)-5-(8-(7-ethyl-1,3-dimethyl-2-oxo-1,2-dihydroquinolin-5-yl)isoquinolin-3-yl)picolinamide]"
> 80,1 to 9.9,"Cc1cc(-n2ccc(N(C)c3cc(C(C)C)c4c(c3)n(C)c(=O)n4C)cc2=O)cnc1C(=O)NCC#Cc1cccc(NC2CCC(=O)NC2=O)c1 (centres unmarked) [Example A42, N-(3-(3-((2,6-dioxopiperidin-3-yl)amino)phenyl)prop-2-yn-1-yl)-4-((7-isopropyl-1,3-dimethyl-2-oxo-2,3-dihydro-1H-benzo [d]imidazol-5-yl)(methyl)amino)-5′-methyl-2-oxo-2H-[1,3′-bipyridine]-6′-carboxamide]"
> 80,1 to 9.9,"Cc1cc(-c2cc3c(cc2C(F)F)N(c2ccc4c(c2)n(C)c(=O)n4C)CCC3)cnc1C(=O)NCC#Cc1ccc2occ(C3CCC(=O)NC3=O)c2c1 (centres unmarked) [Example A94, 5-(7-(difluoromethyl)-1-(1,3-dimethyl-2-oxo-2,3-dihydro-1H-benzo[d]imidazol-5-yl)-1,2,3,4-tetrahydro-quinolin-6-yl)-N-(3-(3-(2,6-dioxopiperidin-3-yl)benzofuran-5-yl)prop-2-yn-1-yl)-3-methylpicolinamide]"
> 80,1 to 9.9,"Cc1cc2c(N3CCCc4nc(-c5ccc(C(=O)NCC#Cc6cc7c(C8CCC(=O)NC8=O)cccc7o6)nc5)ncc43)cc(C3CC3)cc2n(C)c1=O (centres unmarked) [Example B171, 5-(5-(7-cyclopropyl-1,3-dimethyl-2-oxo-1,2-dihydroquinolin-5-yl)-5,6,7,8-tetrahydropyrido [3,2-d]pyrimidin-2-yl)-N-(3-(4-(2,6-dioxo-piperidin-3-yl)benzofuran-2-yl)prop-2-yn-1-yl)picolinamide]"
> 80,10 to 99,"COc1cc(-c2ccc(N(C)c3cc(C(C)C)c4c(c3)n(C)c(=O)n4C)cn2)cnc1C(=O)NCC#Cc1cccc(NC2CCC(=O)NC2=O)c1 (centres unmarked) [Example A49, N-(3-(3-((2,6-dioxopiperidin-3-yl)amino)phenyl)prop-2-yn-1-yl)-5-((7-isopropyl-1,3-dimethyl-2-oxo-2,3-dihydro-1H-benzo [d]imidazol-5-yl) (methyl)amino)-5′-methoxy-[2,3′-bipyridine]-6′-carboxamide]"
> 80,10 to 99,"Cc1cc(-c2cnc(N(C)c3cc(C4CCOCC4)c4c(c3)n(C)c(=O)n4C)cn2)cnc1C(=O)NCC#Cc1cc2c(C3CCC(=O)NC3=O)nccc2o1 (centres unmarked) [Example A176, 5-(5-((1,3-dimethyl-2-oxo-7-(tetrahydro-2H-pyran-4-yl)-2,3-dihydro-1H-benzo[d]imidazol-5-yl)(methyl)amino)pyrazin-2-yl)-N-(3-(4-(2,6-dioxopiperidin-3-yl)furo[3,2-c]pyridin-2-yl)prop-2-yn-1-yl)-3-methylpicolinamide]"
> 80,1 to 9.9,"Cc1cc(N2CCCc3nc(-c4ccc(C(=O)NCC#Cc5ccc6occ(C7CCC(=O)NC7=O)c6c5)nc4)ncc32)c2cc(C)c(=O)n(C)c2c1 (centres unmarked) [Example B151, N-(3-(3-(2,6-dioxopiperidin-3-yl)benzofuran-5-yl)prop-2-yn-1-yl)-5-(5-(1,3,7-trimethyl-2-oxo-1,2-dihydroquinolin-5-yl)-5,6,7,8-tetrahydro-pyrido[3,2-d]pyrimidin-2-yl)picolinamide]"
20 to 39,10 to 99,"Cn1c(=O)n(C)c2c(-n3cccn3)nc(-c3cccc4cc(-c5ccc(C(=O)NCC#Cc6ccc7occ(C8CCC(=O)NC8=O)c7c6)nc5)ncc34)cc21 (centres unmarked) [Example A152, 5-(8-(1,3-dimethyl-2-oxo-4-(1H-pyrazol-1-yl)-2,3-dihydro-1H-imidazo[4,5-c]pyridin-6-yl)iso-quinolin-3-yl)-N-(3-(3-(2,6-dioxopiperidin-3-yl)benzofuran-5-yl)prop-2-yn-1-yl)picolinamide]"
> 80,< 1,"Cc1cc(N2CCN(C)c3cc(-c4ccc(C(=O)NCC#Cc5cc6c(C7CCC(=O)NC7=O)cccc6o5)nc4)ncc32)cc2c1n(C)c(=O)n2C (centres unmarked) [Example A239, N-(3-(4-(2,6-dioxo-piperidin-3-yl)benzofuran-2-yl)prop-2-yn-1-yl)-5-(1-methyl-4-(1,3,7-trimethyl-2-oxo-2,3-dihydro-1H-benzo [d]imidazol-5-yl)-1,2,3,4-tetrahydro-pyrido[3,4-b]pyrazin-7-yl)picolinamide]"
20 to 39,1 to 9.9,"Cc1cc(-c2ncc3c(n2)OCCN3c2cnc3c(c2)n(C)c(=O)n3C)cnc1C(=O)NCC#Cc1ccc2occ(C3CCC(=O)NC3=O)c2c1 (centres unmarked) [Example A126, 5-(5-(1,3-dimethyl-2-oxo-2,3-dihydro-1H-imidazo[4,5-b]pyridin-6-yl)-6,7-dihydro-5H-pyrimido[4,5-b] [1,4]oxazin-2-yl)-N-(3-(3-(2,6-dioxo-piperidin-3-yl)benzofuran-5-yl)prop-2-yn-1-yl)-3-methylpicolinamide]"

SMILES,Dmax [%],DC50 [nM]
"Cn1c(=O)n(C)c2c(N3CC[Si](C)(C)CC3)nc(-c3cccc4cc(-c5ccc(C(=O)NCC#Cc6ccc7occ(C8CCC(=O)NC8=O)c7c6)nc5)ncc34)cc21 (centres unmarked) [Example A118, 5-(8-(4-(4,4-dimethyl-1,4-azasilinan-1-yl)-1,3-dimethyl-2-oxo-2,3-dihydro-1H-imidazo[4,5-c]pyridin-6-yl)isoquinolin-3-yl)-N-(3-(3-(2,6-dioxopiperidin-3-yl)benzofuran-5-yl)prop-2-yn-1-yl)picolinamide]",60 to 79,10 to 99
